Experiment [1] has as its system pressor reaction induced by 310 ng of angiotensin I. Briefly: Intraduodenal administration to anesthetized rats, ED50. It counts as in vivo, rat. On the procedure:
(§1) 1. Intravenous administration to anesthetized rats, 50% inhibition of the pressor reaction induced by 310 ng of angiotensin I, 30 minutes after administration of the dose . . . ED50
2. Intraduodenal administration to anesthetized rats

The test system is the same in experiment [2]. Briefly: Intravenous administration to anesthetized rats, 50% inhibition of the pressor reaction induced by 310 ng of angiotensin I. It counts as in vivo. The settings on record: Rattus norvegicus, 0.5 h, 30 minutes after administration of the dose. The protocol: as §1
For experiment [3], the system named is pressor reaction triggered off by intravenous administration of angiotensin I. Briefly: Oral administration to conscious rats, inhibition of the pressor reaction triggered off by intravenous angiotensin I. The settings on record: 1 mg/kg. The experiment is classed as in vivo, rat.
Setting [4] is: Rattus norvegicus, read-out: ED50.

For `C[C@H](N[C@@H](CC(=O)c1ccccc1)C(=O)OCc1ccccc1)C(=O)N1C(C(=O)O)CC2CCCC21` (relative stereo) [X=C6H5, Y=--, Z=O, R1=CH3, R2=C7H7, N-(1-S-Carbobenzyloxy-3-oxo-3-phenyl-propyl)-S-alanyl-2-cis,endo-azabicyclo-[3.3.0]-octane-3-carboxylic acid], the ED50 in experiment [1] was found to be 0.25 mg/kg.

As to `CCOC(=O)[C@H](CC(=O)c1ccccc1)N[C@@H](C)C(=O)N1[C@H](C(=O)O)C[C@@H]2CCC[C@@H]21` [X=C6H5, Y=--, Z=O, R1=CH3, R2=C2H5, N-(1-S-carbethoxy-3-oxo-3-phenyl-propyl)-S-alanyl-cis,endo-2-azabicyclo-[3.3.0]-octane-3-S-carboxylic acid], the ED50 in experiment [1] (setting [4]) was determined as 0.28 mg/kg.

For the molecule `CCOC(=O)[C@H](CCc1ccccc1)N[C@@H](C)C(=O)N1[C@H](C(=O)O)C[C@@H]2CCC[C@@H]21` [X=C6H5, Y=H, Z=H, R1=CH3, R2=C2H5, N-(1-S-Carbethoxy-3-phenyl-propyl)-S-alanyl-cis,endo-2-azabicyclo-[3.3.0]-octane-3-S-carboxylic acid], the ED50 in experiment [2] stood at 0.0083 mg/kg. In addition, in experiment [1] (setting [4]), the ED50 turned out to be 0.05 mg/kg. For the same molecule, in experiment [3], the “duration of the 90% inhibition of the pressor reaction” value was “over 6 hours” and the “inhibition of the pressor reaction triggered off by intravenous administration of angiotensin I” value was 90%.

In the case of `C[C@H](N[C@@H](CCc1ccccc1)C(=O)O)C(=O)N1[C@H](C(=O)O)C[C@@H]2CCC[C@@H]21` [X=C6H5, Y=H, Z=H, R1=CH3, R2=H, N-(1-S-Carboxy-3-phenyl-propyl)-S-alanyl-cis,endo-2-azabicyclo-[3.3.0]-octane-3-S-carboxylic acid], the ED50 in experiment [2] came to 0.0027 mg/kg; in experiment [1] (setting [4]), 0.6 mg/kg.
